Assay results from ChEMBL document CHEMBL2086337, “Inhibition of monoamine oxidase by 8-phenoxymethylcaffeine derivatives” (Bioorg Med Chem, 2012).

Columns and labels:
[1] = biological target: T1, Amine oxidase [flavin-containing] B (Homo sapiens, UniProt P27338); assay: Inhibition of human recombinant MAO-B expressed in baculovirus infected insect cells using kynuramine as substrate after 20 mins by horseradish peroxidase-coupled assay
T1 sequence (P27338 whole entry): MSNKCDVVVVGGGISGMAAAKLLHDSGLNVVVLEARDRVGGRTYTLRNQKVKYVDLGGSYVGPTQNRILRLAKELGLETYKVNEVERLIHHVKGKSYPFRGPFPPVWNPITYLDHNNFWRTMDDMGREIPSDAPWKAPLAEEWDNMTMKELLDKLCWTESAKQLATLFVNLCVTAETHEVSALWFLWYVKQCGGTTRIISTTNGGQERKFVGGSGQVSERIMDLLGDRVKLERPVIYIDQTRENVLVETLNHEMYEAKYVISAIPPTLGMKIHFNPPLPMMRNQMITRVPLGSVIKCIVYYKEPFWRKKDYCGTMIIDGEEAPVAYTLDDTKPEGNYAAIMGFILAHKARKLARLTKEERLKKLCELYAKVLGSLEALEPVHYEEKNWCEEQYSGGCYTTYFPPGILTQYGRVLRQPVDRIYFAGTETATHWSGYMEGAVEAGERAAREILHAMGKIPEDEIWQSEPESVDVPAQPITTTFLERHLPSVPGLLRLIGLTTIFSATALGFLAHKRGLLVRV

[2] = biological target: T2, Amine oxidase [flavin-containing] A (Homo sapiens, UniProt P21397); assay: Inhibition of human recombinant MAO-A expressed in baculovirus infected insect cells using kynuramine as substrate after 20 mins by horseradish peroxidase-coupled assay
T2 sequence (P21397 whole entry): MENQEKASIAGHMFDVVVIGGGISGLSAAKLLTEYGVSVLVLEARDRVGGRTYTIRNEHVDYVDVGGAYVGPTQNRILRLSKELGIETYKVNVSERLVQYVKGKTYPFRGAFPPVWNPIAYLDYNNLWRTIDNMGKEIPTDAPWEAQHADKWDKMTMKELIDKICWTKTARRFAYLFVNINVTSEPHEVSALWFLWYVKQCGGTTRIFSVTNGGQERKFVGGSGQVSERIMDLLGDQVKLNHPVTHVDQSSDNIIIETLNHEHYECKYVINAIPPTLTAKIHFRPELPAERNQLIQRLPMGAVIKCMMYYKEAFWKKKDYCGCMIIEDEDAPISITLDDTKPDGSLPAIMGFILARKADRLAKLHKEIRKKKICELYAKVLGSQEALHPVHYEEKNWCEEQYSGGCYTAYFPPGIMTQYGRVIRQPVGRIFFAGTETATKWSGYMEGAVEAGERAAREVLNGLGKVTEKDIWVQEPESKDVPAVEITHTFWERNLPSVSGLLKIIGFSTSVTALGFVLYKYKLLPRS

Homo sapiens = species: Homo sapiens; assay: Selectivity index, ratio of IC50 for human recombinant MAO-A to IC50 for human recombinant MAO-B
[3] = biological target: T2, Amine oxidase [flavin-containing] A; assay: Inhibition of human recombinant MAO-A expressed in baculovirus infected insect cells using kynuramine as substrate after 20 mins by fluorescence spectrophotometry
[4] = biological target: T1, Amine oxidase [flavin-containing] B; assay: Inhibition of human recombinant MAO-B expressed in baculovirus infected insect cells using kynuramine as substrate after 20 mins by fluorescence spectrophotometry
[5] = biological target: T1, Amine oxidase [flavin-containing] B; assay: Competitive inhibition of human recombinant MAO-B expressed in baculovirus infected insect cells using kynuramine as substrate by Lineweaver-Burk plot analysis
[6] = biological target: T1, Amine oxidase [flavin-containing] B; assay: Reversible inhibition of human recombinant MAO-B expressed in baculovirus infected insect cells using kynuramine as substrate at 0.3 uM incubated up to 60 mins prior to substrate addition measured after 15 mins by fluorescence spectrophotometry; conditions: 0.25 h
[7] = biological target: T2, Amine oxidase [flavin-containing] A; assay: Reversible inhibition of human recombinant MAO-A expressed in baculovirus infected insect cells using kynuramine as substrate at 0.3 uM incubated up to 60 mins prior to substrate addition measured after 15 mins by fluorescence spectrophotometry; conditions: 0.25 h
[8] = biological target: T1, Amine oxidase [flavin-containing] B; assay: Reversible inhibition of human recombinant MAO-B expressed in baculovirus infected insect cells using kynuramine as substrate at 9.7 uM incubated up to 60 mins prior to substrate addition measured after 15 mins by fluorescence spectrophotometry; conditions: 0.25 h
[9] = biological target: T2, Amine oxidase [flavin-containing] A; assay: Reversible inhibition of human recombinant MAO-A expressed in baculovirus infected insect cells using kynuramine as substrate at 9.7 uM incubated up to 60 mins prior to substrate addition measured after 15 mins by fluorescence spectrophotometry; conditions: 0.25 h

Row | IC50 [1] [µM] | IC50 ([2]; read-out: IC50) [µM] | Ratio IC50 (Homo sapiens) | IC50 [3] [µM] | IC50 [4] [µM] | SMILES | further results
1 | 1.61 | 13.2 | 8 |  |  | Cn1c(=O)c2c(nc(COc3cccc(F)c3)n2C)n(C)c1=O | 
2 |  |  | 3 | 19.4 | 6.12 | Cn1c(=O)c2c(nc(CSc3cccc(Cl)c3)n2C)n(C)c1=O | 
3 |  |  | 5 | 20.8 | 4.05 | Cn1c(=O)c2c(nc(CSc3ccc(Br)cc3)n2C)n(C)c1=O | 
4 | 1.96 |  |  |  |  | COc1cccc(OCc2nc3c(c(=O)n(C)c(=O)n3C)n2C)c1 | IC50 [2]: Not Active
5 | 64.1 | 372 | 6 |  |  | Cn1c(=O)c2c(nc(CCSc3cccc(Br)c3)n2C)n(C)c1=O | 
6 |  |  | 3 | 66.2 | 23.4 | Cn1c(=O)c2c(nc(CSc3ccccc3)n2C)n(C)c1=O | 
7 | 0.189 | 10.7 | 57 |  |  | Cn1c(=O)c2c(nc(COc3ccc(Br)cc3)n2C)n(C)c1=O | 
8 | 124 | 117 | 0.9 |  |  | Cn1c(=O)c2c(nc(CCSc3ccc(Br)cc3)n2C)n(C)c1=O | 
9 | 0.148 | 34 | 230 |  |  | Cn1c(=O)c2c(nc(COc3cccc(Br)c3)n2C)n(C)c1=O | inhibition (INH) [5]: Active; inhibition (INH) [6]: Active; inhibition (INH) [7]: Active
10 | 108 | 139 | 1.3 |  |  | Cn1c(=O)c2c(nc(CCSc3ccccc3)n2C)n(C)c1=O | 
11 | 0.334 |  |  |  |  | Cn1c(=O)c2c(nc(COc3cccc(Cl)c3)n2C)n(C)c1=O | IC50 [2]: Not Active
12 | 1.23 | 18.8 | 15 |  |  | Cc1cccc(OCc2nc3c(c(=O)n(C)c(=O)n3C)n2C)c1 | 
13 | 7.79 | 142 | 18 |  |  | Cn1c(=O)c2c(nc(CCSc3ccc(Cl)cc3)n2C)n(C)c1=O | 
14 |  |  | 2 | 44.7 | 18.4 | CCOc1cccc(SCc2nc3c(c(=O)n(C)c(=O)n3C)n2C)c1 | 
15 |  |  | 2 | 50.1 | 22.3 | Cn1c(=O)c2c(nc(CSc3cccc(F)c3)n2C)n(C)c1=O | 
16 | 0.641 | 4.59 | 7 |  |  | Cn1c(=O)c2c(nc(COc3cccc(C(F)(F)F)c3)n2C)n(C)c1=O | inhibition (INH) [8]: Active; inhibition (INH) [9]: Active
17 | 5.78 | 21.1 | 4 |  |  | Cn1c(=O)c2c(nc(COc3ccccc3)n2C)n(C)c1=O | 
18 |  |  | 5 | 31.6 | 6.91 | Cn1c(=O)c2c(nc(CSc3ccc(Cl)cc3)n2C)n(C)c1=O | 
19 | 5.67 |  |  |  |  | Cn1c(=O)c2c(nc(CCSc3cccc(Cl)c3)n2C)n(C)c1=O | IC50 [2]: Not Active
20 |  |  | 5 | 23.8 | 4.9 | Cn1c(=O)c2c(nc(CSc3cccc(Br)c3)n2C)n(C)c1=O | 
21 | 0.825 | 8.22 | 10 |  |  | Cn1c(=O)c2c(nc(COc3ccc(F)cc3)n2C)n(C)c1=O | 
22 |  |  | 3 | 51.8 | 17.9 | Cc1cccc(SCc2nc3c(c(=O)n(C)c(=O)n3C)n2C)c1 | 
23 |  |  | 5 | 41.3 | 8.42 | COc1cccc(SCc2nc3c(c(=O)n(C)c(=O)n3C)n2C)c1 | 
24 | 0.25 | 20.4 | 82 |  |  | Cn1c(=O)c2c(nc(COc3ccc(Cl)cc3)n2C)n(C)c1=O | 
